In the experiment the test system is Staphylococcus aureus. The experiment can be described thus: Antimicrobial activity against Staphylococcus aureus UCN18 measured after 18 hrs. It is filed as functional. The conditions noted are these: UCN18, 18 h.

Structures are written as SMILES. ≈ marks a conversion by molar mass, not a printed value.

`CC[C@H]1OC(=O)[C@@](C)(F)C(=O)[C@H](C)[C@@H](O[C@@H]2O[C@H](C)C[C@H](N(C)C)[C@H]2O)[C@](C)(OC)C[C@@H](C)C(=O)[C@H](C)[C@H]2N(CCCCn3cc(-c4cccc(O)c4)nn3)C(=O)O[C@]12C` returned an MIC of 8 µg/mL (≈ 9.46 µM).

With `CC[C@H]1OC(=O)[C@@](C)(F)C(=O)[C@H](C)[C@@H](O[C@@H]2O[C@H](C)C[C@H](N(C)C)[C@H]2O)[C@](C)(OC)C[C@@H](C)C(=O)[C@H](C)[C@H]2N(CCCCn3cc(-c4cccc(C(F)(F)F)c4)nn3)C(=O)O[C@]12C`, the minimum inhibitory concentration (MIC) came to 32 µg/mL (≈ 35.6 µM). Against the preceding compound, the MIC is about 4-fold higher.

Regarding `CC[C@H]1OC(=O)[C@@](C)(F)C(=O)[C@H](C)[C@@H](O[C@@H]2O[C@H](C)C[C@H](N(C)C)[C@H]2O)[C@](C)(OC)C[C@@H](C)C(=O)[C@H](C)[C@H]2N(CCCCn3cc(-c4ccccc4F)nn3)C(=O)O[C@]12C`, the lowest concentration to inhibit growth (MIC) was 8 µg/mL (≈ 9.43 µM).

`CC[C@H]1OC(=O)[C@@](C)(F)C(=O)[C@H](C)[C@@H](O[C@@H]2O[C@H](C)C[C@H](N(C)C)[C@H]2O)[C@](C)(OC)C[C@@H](C)C(=O)[C@H](C)[C@H]2N(CCCCn3cc(COc4ccccc4)nn3)C(=O)O[C@]12C` had a minimal inhibitory concentration (MIC) of 4 µg/mL (≈ 4.65 µM).

The compound `CC[C@H]1OC(=O)[C@@](C)(F)C(=O)[C@H](C)[C@@H](O[C@@H]2O[C@H](C)C[C@H](N(C)C)[C@H]2O)[C@](C)(OC)C[C@@H](C)C(=O)[C@H](C)[C@H]2N(CCCCn3cc(-c4cccc(N)c4)nn3)C(=O)O[C@]12C` [SOLITHROMYCIN] yielded an MIC of 2 µg/mL (≈ 2.37 µM).

The compound `CC[C@H]1OC(=O)[C@@](C)(F)C(=O)[C@H](C)[C@@H](O[C@@H]2O[C@H](C)C[C@H](N(C)C)[C@H]2O)[C@](C)(OC)C[C@@H](C)C(=O)[C@H](C)[C@H]2N(CCCCn3cc(-c4cccnc4)nn3)C(=O)O[C@]12C` gave a minimal inhibitory concentration (MIC) of 16 µg/mL (≈ 19.3 µM).

With `CC[C@H]1OC(=O)[C@@](C)(F)C(=O)[C@H](C)[C@@H](O[C@@H]2O[C@H](C)C[C@H](N(C)C)[C@H]2O)[C@](C)(OC)C[C@@H](C)C(=O)[C@H](C)[C@H]2N(CCCCn3cc(-c4ccc(OC)cc4)nn3)C(=O)O[C@]12C`, it took 32 µg/mL (≈ 37.2 µM) to inhibit growth (MIC).

In turn, `CC[C@H]1OC(=O)[C@@](C)(F)C(=O)[C@H](C)[C@@H](O[C@@H]2O[C@H](C)C[C@H](N(C)C)[C@H]2O)[C@](C)(OC)C[C@@H](C)C(=O)[C@H](C)[C@H]2N(CCCCn3cc(CN4CCNCC4)nn3)C(=O)O[C@]12C` yielded a minimum inhibitory concentration (MIC) of 128 µg/mL (≈ 150 µM).

Compound `CC[C@H]1OC(=O)[C@@](C)(F)C(=O)[C@H](C)[C@@H](O[C@@H]2O[C@H](C)C[C@H](N(C)C)[C@H]2O)[C@](C)(OC)C[C@@H](C)C(=O)[C@H](C)[C@H]2N(CCCCn3cc(-c4ccc(N(C)C)cc4)nn3)C(=O)O[C@]12C` showed an MIC of 32 µg/mL (≈ 36.7 µM).

Compound `CC[C@H]1OC(=O)[C@@](C)(F)C(=O)[C@H](C)[C@@H](O[C@@H]2O[C@H](C)C[C@H](N(C)C)[C@H]2O)[C@](C)(OC)C[C@@H](C)C(=O)[C@H](C)[C@H]2N(CCCCn3cc(COc4ccc(OC)cc4)nn3)C(=O)O[C@]12C` had an MIC of 16 µg/mL (≈ 18 µM). Compared with the last compound, the MIC is about 2-fold lower.

Compound `CC[C@H]1OC(=O)[C@@](C)(F)C(=O)[C@H](C)[C@@H](O[C@@H]2O[C@H](C)C[C@H](N(C)C)[C@H]2O)[C@](C)(OC)C[C@@H](C)C(=O)[C@H](C)[C@H]2N(CCCCn3cc(C(O)(CC)CC)nn3)C(=O)O[C@]12C` registered an MIC of 128 µg/mL (≈ 152 µM).

In turn, `CC[C@H]1OC(=O)[C@@](C)(F)C(=O)[C@H](C)[C@@H](O[C@@H]2O[C@H](C)C[C@H](N(C)C)[C@H]2O)[C@](C)(OC)C[C@@H](C)C(=O)[C@H](C)[C@H]2N(CCCCN=[N+]=[N-])C(=O)O[C@]12C` had an MIC of 256 µg/mL (≈ 352 µM).

The values are drawn from ChEMBL document CHEMBL4196233, “Ribosome-Templated Azide-Alkyne Cycloadditions Using Resistant Bacteria as Reaction Vessels: in Cellulo Click Chemistry” (2018).
